Tested on: D1 cells
Assay: Differential gene expression analysis (Mu6500 GeneChip) in LPS- and TNF-α-stimulated versus unstimulated D1 cells
Type: cell-based, mouse
Parameters: key: NC: No change in the level of expression; I: induced (detected only in stimulated cells); U: up-regulated; D: down-regulated; S: suppressed (detected only in unstimulated cells)
Settings: no asterisk=fold change, *=AvgDiff after stimulation, **=AvgDiff in baseline
Protocol: Cells and reagents. The D1 cells were derived from murine splenic DC and maintained in vitro in IMDM supplemented with 30% R1 conditional medium as previously described. LPS (Escherichia coli sero- type 026:B6) was purchased from Sigma Chemical Co. and used at 10 μg/ml. Muriner TNF-α (Genetech Inc., San Francisco. Calif.) was used at 100 U/ml. Cells were grown and harvested at the same time.
RNA extraction, amplification and labeling for hybridization. Antisense cRNA was prepared following Affymetrix (Santa Clara, Calif.) recommendations. Briefly, mRNA was directly extracted from frozen pellets using the DIRECT OLIGOTEX KIT (i.e., column chromatography kit for mRNA purification) from Qiagen (Chatsworth, Calif.) and converted to double-stranded cDNA using a modified oligo dT primer with a 5′T7 RNA polymerase promoter sequence and the SUPER-SCRIPT CHOICE SYSTEM (i.e., reverse transcriptase system) for cDNA synthesis (Life Technologies, Gaithesbourg, Md.). Double-stranded cDNA (0.5 μg) was transcribed to cRNA with the T7 RNA polymerase (T7 MEGASCRIPT KIT (i.e., phage specific in vitro transcription kit); Ambion, Austin, Tex.) in the presence of a mixture of unlabeled ATP, CTP, GTP, UTP and biotin-labeled CTP and UTP (ENZO Diagnostics, Farmingdale, N.Y.). cRNA was purified on an affinity column (RNEASY (i.e., a RNA purification column); Qiagen).
Probe array hybridization and scanning. The Mu6500 GENECHIP (i.e., DNA microarray) array consists of a set of four individual chips, A-D, collectively representing 6,500 murine genes and ESTs. Analysis of the D1 samples was performed by hybridizing the cRNA to the GENECHIP (i.e., DNA microarray) arrays A-D. Probe array hybridizations were carried out as described. cRNA was fragmented to an average size of 50-200 bases, by incubation for 30 min at 94° C. in 40 mM Tris-acetate pH 8.1, 100 mM potassium acetate and 30 mM magnesium acetate.
Samples were then diluted in the hybridization solution (1 M NaCI, 10 mM Tris pH7.6, 0.005% Triton X-100, 0.1 mg/ml herring sperm DNA, BioB-, BioC-, BioD-, cre- control cRNA at a concentration of 1.5, 5, 25, 100 pM, respectively) at a final concentration of 0.05 μg/ml heated at 94° C. for 5 min and placed in the hybridization cartridge (200 μl/chip). Hybridizations were performed at 40° C. for 16 h. Following hybridization the chips were rinsed with 6× SSPE-T (0.9 M NaCI, 60 mM NaH2PO4, 6 mM EDTA, 0.005% Triton X-100 adjusted to pH 7.6) and 0.5× SSPE-T and stained by incubating with 2 μg/ml streptavidin-phycoerythrin (Molecular Probes, Eugene, Oreg.) and 1 mg/ml acetylated BSA (Sigma, St. Louis, Mo.).
The arrays were read at a resolution of 7.5 μm. using a confocal scanner (Affymetrix) and analyzed with the GENECHIP 3.3 GENE EXPRESSION ANALYSIS PROGRAM (i.e., gene expression analysis software) (Affymetrix).
Gene expression analysis was performed on immature, transitional (6 h LPS and TNF-α-activated) and mature (18 h LPS- and TNF-α-activated) D1 cells using GENECHIP (i.e., DNA microarray) oligonucleotide probe arrays representing approximately 6,500 distinct mouse genes and ESTs. The 6,500 probe sets are subdivided in four individual chips, A-D, each containing oligonucleotide probes for about 1,600 genes and ESTs. The hybridized arrays were analyzed using the GENECHIP 3.3 GENE EXPRESSION ANALYSIS PROGRAM (i.e., gene expression analysis software). Data analysis protocols, sensitivity and quantitative aspects of the method have been previously precisely described. In brief, gene probes are represented by 20 perfectly matched 20-mer oligonucleotides (PM) and 20 control oligonucleotides with a single mismatch (MM). Gene expression levels are defined averaging the differences (AvgDiff) between the PM and MM of every probe pair over the entire probe set:
An AvgDiff of 20 approximates the lower value of fluorescence intensity for detected genes. […]

tumor necrosis factor [TNFα]
NC: 1AP3 (Y08026) gene expression, stimulated versus unstimulated D1 cells (6 h) | BTG1 (L16846) gene expression, stimulated versus unstimulated D1 cells (6 h) | BTG3 (Z72000) gene expression, stimulated versus unstimulated D1 cells (6 h) | CD14 (M34510) gene expression, stimulated versus unstimulated D1 cells (6 h) | CD37 (U18372) gene expression, stimulated versus unstimulated D1 cells (6 h) | CD40 (M833312) gene expression, stimulated versus unstimulated D1 cells (6 h) | CYL-1 (M64403) gene expression, stimulated versus unstimulated D1 cells (6 h) | Clqα (X58861) gene expression, stimulated versus unstimulated D1 cells (6 h) | EtAI (X16151) gene expression, stimulated versus unstimulated D1 cells (6 h) | F4-80 (X93328) gene expression, stimulated versus unstimulated D1 cells (6 h) | GAS (U19860) gene expression, stimulated versus unstimulated D1 cells (6 h) | H-2Mα (U35323) gene expression, stimulated versus unstimulated D1 cells (6 h) | H-2Mβ1 (U35323) gene expression, stimulated versus unstimulated D1 cells (6 h) | I-Aα (K01923) gene expression, stimulated versus unstimulated D1 cells (6 h) | I-Aβ (V01527) gene expression, stimulated versus unstimulated D1 cells (6 h) | IL-6 (J03783) gene expression, stimulated versus unstimulated D1 cells (6 h) | IL-12p40 (M86671) gene expression, stimulated versus unstimulated D1 cells (6 h) | IL-IRA (M64404) gene expression, stimulated versus unstimulated D1 cells (6 h) | Jaw1 (U10484) gene expression, stimulated versus unstimulated D1 cells (6 h) | Ki-67 (X82786) gene expression, stimulated versus unstimulated D1 cells (6 h) | MIP-1α (M73061) gene expression, stimulated versus unstimulated D1 cells (6 h) | MIP-2 (X53798) gene expression, stimulated versus unstimulated D1 cells (6 h) | Macrostatin (X68273) gene expression, stimulated versus unstimulated D1 cells (6 h) | OX40L (U12763) gene expression, stimulated versus unstimulated D1 cells (6 h) | PA28 (U60329) gene expression, stimulated versus unstimulated D1 cells (6 h) | RCK (D50494) gene expression, stimulated versus unstimulated D1 cells (6 h) | TAP-1cas (M55637) gene expression, stimulated versus unstimulated D1 cells (6 h) | TIS (D86344) gene expression, stimulated versus unstimulated D1 cells (6 h) | TMP (U25633) gene expression, stimulated versus unstimulated D1 cells (6 h) | TSA1 (U47737) gene expression, stimulated versus unstimulated D1 cells (6 h) | c-1AP-I (L49433) gene expression, stimulated versus unstimulated D1 cells (6 h) | cyclin A (Z26580) gene expression, stimulated versus unstimulated D1 cells (6 h) | cyclin B1 (X64713) gene expression, stimulated versus unstimulated D1 cells (6 h) | cyclin B2 (X66032) gene expression, stimulated versus unstimulated D1 cells (6 h) | cyclin D2 (M83749) gene expression, stimulated versus unstimulated D1 cells (6 h) | serum amyloid (X03505) gene expression, stimulated versus unstimulated D1 cells (6 h) | βig-h3 (L19932) gene expression, stimulated versus unstimulated D1 cells (6 h) | BTG1 (L16846) gene expression, stimulated versus unstimulated D1 cells (18 h) | CD14 (M34510) gene expression, stimulated versus unstimulated D1 cells (18 h) | CD37 (U18372) gene expression, stimulated versus unstimulated D1 cells (18 h) | CYL-1 (M64403) gene expression, stimulated versus unstimulated D1 cells (18 h) | Clqα (X58861) gene expression, stimulated versus unstimulated D1 cells (18 h) | F4-80 (X93328) gene expression, stimulated versus unstimulated D1 cells (18 h) | GAS (U19860) gene expression, stimulated versus unstimulated D1 cells (18 h) | H-2Mα (U35323) gene expression, stimulated versus unstimulated D1 cells (18 h) | H-2Mβ1 (U35323) gene expression, stimulated versus unstimulated D1 cells (18 h) | I-Aα (K01923) gene expression, stimulated versus unstimulated D1 cells (18 h) | I-Aβ (V01527) gene expression, stimulated versus unstimulated D1 cells (18 h) | IL-6 (J03783) gene expression, stimulated versus unstimulated D1 cells (18 h) | IL-12p40 (M86671) gene expression, stimulated versus unstimulated D1 cells (18 h) | IL-IRA (M64404) gene expression, stimulated versus unstimulated D1 cells (18 h) | MIP-1α (M73061) gene expression, stimulated versus unstimulated D1 cells (18 h) | MIP-2 (X53798) gene expression, stimulated versus unstimulated D1 cells (18 h) | Macrostatin (X68273) gene expression, stimulated versus unstimulated D1 cells (18 h) | OX40L (U12763) gene expression, stimulated versus unstimulated D1 cells (18 h) | PA28 (U60329) gene expression, stimulated versus unstimulated D1 cells (18 h) | RCK (D50494) gene expression, stimulated versus unstimulated D1 cells (18 h) | TAP-1cas (M55637) gene expression, stimulated versus unstimulated D1 cells (18 h) | TIS (D86344) gene expression, stimulated versus unstimulated D1 cells (18 h) | TSA1 (U47737) gene expression, stimulated versus unstimulated D1 cells (18 h) | cyclin A (Z26580) gene expression, stimulated versus unstimulated D1 cells (18 h) | cyclin D2 (M83749) gene expression, stimulated versus unstimulated D1 cells (18 h) | mMCM2 (D86725) gene expression, stimulated versus unstimulated D1 cells (18 h) | properdin (X12905) gene expression, stimulated versus unstimulated D1 cells (18 h) | βig-h3 (L19932) gene expression, stimulated versus unstimulated D1 cells (18 h)
